{
  "source": "paper PMC11271627",
  "about": "“Molecular dynamics-guided optimization of BGM0504 enhances dual-target agonism for combating diabetes and obesity” (Scientific Reports, 2024)",
  "key": {"[1]": {"target": "T1, Human Serum Albumin (HSA) protein (Homo sapiens, UniProt P02768)", "T1 construct": "purified Human ALB (25–609)-His was immobilized", "T1 sequence (P02768 25-609)": "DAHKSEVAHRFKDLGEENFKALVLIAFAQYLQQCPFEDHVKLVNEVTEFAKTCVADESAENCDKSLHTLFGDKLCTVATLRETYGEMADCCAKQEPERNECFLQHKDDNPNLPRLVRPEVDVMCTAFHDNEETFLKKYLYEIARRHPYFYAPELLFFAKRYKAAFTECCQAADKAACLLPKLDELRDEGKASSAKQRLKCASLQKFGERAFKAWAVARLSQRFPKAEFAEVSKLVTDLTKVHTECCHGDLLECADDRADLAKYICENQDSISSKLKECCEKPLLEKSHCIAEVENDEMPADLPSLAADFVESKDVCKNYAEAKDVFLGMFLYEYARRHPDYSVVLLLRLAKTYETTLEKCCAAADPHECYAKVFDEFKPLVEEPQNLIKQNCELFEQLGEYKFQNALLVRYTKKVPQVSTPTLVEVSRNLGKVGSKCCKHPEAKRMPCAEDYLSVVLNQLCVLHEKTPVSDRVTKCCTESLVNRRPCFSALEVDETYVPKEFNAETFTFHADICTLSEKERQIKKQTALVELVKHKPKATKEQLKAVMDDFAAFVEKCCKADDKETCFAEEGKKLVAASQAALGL", "test": "biochemical", "type": "binding", "from_the_text": "The buffer used was PBST (PBS with 0.02% Tween 20)."}, "[2]": {"test_system": "db/db mice", "test": "Blood glucose reducing effect in db/db mice model", "type": "in vivo", "settings": "for Insulin in serum: 31 days, ELISA, three days after last dose, Mean±SD, n=11", "method": "In contrast, the db/db-ND group received only the drug vehicle via subcutaneous injection. Three parallel experimental groups were established to explore the dose-dependent characteristics of BGM0504 in db/db mice: a low-dose group (0.05 mg/kg), a standard dose group (0.15 mg/kg), and a high-dose group (0.5 mg/kg), each comprising 11 db/db mice. Subsequent administrations were conducted every 3 days following the initial administration, and the experiment spanned 31 days. […] To thoroughly investigate the dose dependence of BGM0504 in db/db mice, we established additional dose groups, including a low-dose group at 0.05 mg/kg and a high-dose group at 0.5 mg/kg. Each experimental group comprised 11 db/db mice. Following the initial administration, subsequent doses were administered every 3 days, spanning a total of 31 days. Throughout this study, we meticulously observed and analyzed a spectrum of parameters encompassing changes in body weight, food intake, non-fasting blood glucose post-initial administration. In this experimental endeavor, we engaged 55 male db/db mice of SPF grade, procured at 6–8 weeks, from Zhejiang Vital River Laboratory Animal Technology Co., Ltd. The animals were divided into groups based on body weight and fasting blood glucose levels. […] The groups included the db/db-ND group, the Tirzepatide-0.15 mg/kg group, the BGM0504-0.05 mg/kg group, the BGM0504-0.15 mg/kg group, and the BGM0504-0.5 mg/kg group, each comprising 11 mice. […] Non-fasting blood glucose levels were measured at 0, 1, 2, 3, 6, 24, 48, and 72 hours post-administration. Three days after the last dose, the mice were weighed. Subsequently, a portion of non-anticoagulated whole blood was collected from the orbital venous plexus under anesthesia. Blood samples were left at room temperature for 30 minutes, then centrifuged at 5000 rpm for 5 minutes. The serum was separated and frozen at -80°C for serum insulin content testing. Serum insulin levels were measured using the enzyme-linked immunosorbent assay (ELISA) method."}, "[3]": {"test": "in vivo", "set-up": "species or system SD rats", "settings": "rat; for AUC(0-inf) / AUC(0-t): SD", "method": "In this experiment, a total of 24 rats (12 of each sex) were provided by Beijing Vitong Lever Experimental Animal Technology Co., Ltd. Each animal was identified using a tail mark and had its health status confirmed by Suzhou WuXi AppTec’s veterinary team before use. The animal room was monitored for temperature and humidity, with data recorded daily to ensure that the relative humidity was maintained at 40%–70% and the temperature was between 20–26°C. The lighting adopted a 12-hour alternating light and dark mode. Regular growth feed was provided daily, and animals had ready access to water. […] Post-administration, the condition of the animals was observed and documented before and after each blood collection point. The ensemble of 24 SD rats was divided into four groups, with three specimens of each gender in each group. Animals in group 1 received a single intravenous bolus of 0.2 mg/kg BGM0504, and groups 2, 3, and 4 received a single subcutaneous injection of 0.3, 1.5, and 7.5 mg/kg BGM0504 in 20 mM citrate buffered solution (pH=7.0±0.2), respectively. Blood samples were collected for pharmacokinetic analysis at specific time points (0.5, 1, 2, 4, 8, 12, 24, 48, 72, 96, and 120 hours) before and after dosing. At the same time, blood glucose levels were measured before and at 1, 4, 8, 12, and 24 hours after dosing. The collected blood samples were transferred to labeled commercial sample tubes containing K2-EDTA, centrifuged, and plasma was retrieved; some were used for analysis, and the other part was reserved as a backup. Plasma was transferred to pre-cooled centrifuge tubes, snap-frozen in dry ice, and stored in an ultra-low temperature freezer at -60°C or lower until transported to the Drug Evaluation Department of WuXi AppTec Shanghai Drug Development Co., Ltd. for analysis."}, "[4]": {"settings": "both sexes, Sprague-Dawley, iv, 0.2 mg/kg"}, "[5]": {"settings": "both sexes, Sprague-Dawley, sc, 0.3 mg/kg"}, "[6]": {"settings": "both sexes, Sprague-Dawley, sc, 1.5 mg/kg"}, "[7]": {"settings": "both sexes, Sprague-Dawley, sc, 7.5 mg/kg"}},
  "note": "Marks after values point to notes of the source that are not given here.",
  "data": [
    {"smiles": "CC[C@H](C)[C@H](NC(=O)[C@H](CC(C)C)NC(=O)[C@H](Cc1c[nH]c2ccccc12)NC(=O)[C@H](CCC(N)=O)NC(=O)[C@@H](NC(=O)[C@H](Cc1ccccc1)NC(=O)[C@H](C)NC(=O)[C@H](CCCCN)NC(=O)[C@H](CCC(N)=O)NC(=O)[C@H](C)NC(=O)[C@@H](NC(=O)[C@H](CCCCN)NC(=O)[C@H](CC(=O)O)NC(=O)[C@H](CC(C)C)NC(=O)C(C)(C)NC(=O)[C@@H](NC(=O)[C@H](CO)NC(=O)[C@H](Cc1ccc(O)cc1)NC(=O)[C@H](CC(=O)O)NC(=O)[C@H](CO)NC(=O)[C@@H](NC(=O)[C@H](Cc1ccccc1)NC(=O)[C@@H](NC(=O)CNC(=O)[C@H](CCC(=O)O)NC(=O)C(C)(C)NC(=O)[C@@H](N)Cc1ccc(O)cc1)[C@@H](C)O)[C@@H](C)O)[C@@H](C)CC)[C@@H](C)CC)C(C)C)C(=O)N[C@@H](C)C(=O)NCC(=O)NCC(=O)N1CCC[C@H]1C(=O)N[C@@H](CO)C(=O)N[C@@H](CO)C(=O)NCC(=O)N[C@@H](C)C(=O)N1CCC[C@H]1C(=O)N1CCC[C@H]1C(=O)N1CCC[C@H]1C(=O)N[C@@H](CO)C(=O)N[C@@H](CCCCNC(=O)COCCOCCOCCNC(=O)COCCOCCOCCNC(=O)CC[C@H](NC(=O)CCCCCCCCCCCCCCCCCCC(=O)O)C(=O)O)C(N)=O", "note": "[BGM0504]", "values": [
      {"measurement": "Kd", "setting": "[1]", "result": 73, "unit": "nM"},
      {"measurement": "Insulin in serum", "setting": "[2]; 0.05 mg/kg s.c. every 3 days", "result": "37649.0±3597.0^a nIU/mL"},
      {"measurement": "Insulin in serum", "setting": "[2]; 0.15 mg/kg s.c. every 3 days", "result": "30897.0±5634.0^a nIU/mL"},
      {"measurement": "Insulin in serum", "setting": "[2]; 0.5 mg/kg s.c. every 3 days", "result": "32774.0±6290.0^a nIU/mL"},
      {"measurement": "body weight and food intake", "setting": "[2]; early stages of administration", "result": "acute decline in body weight and food intake"},
      {"measurement": "non-fasting blood glucose within 72 h after first administration, vs db/db-ND group", "setting": "[2]; s.c., Tirzepatide 0.15 mg/kg, BGM0504 0.05, 0.15, 0.5 mg/kg, n = 11", "result": "significant blood glucose suppression"},
      {"measurement": "AUC(0-inf)", "setting": "[3]; both sexes, iv, 0.2 mg/kg", "result": 50000, "unit": "ng·h/mL"},
      {"measurement": "AUC(0-inf)", "setting": "[3]; both sexes, sc, 0.3 mg/kg", "result": 33400, "unit": "ng·h/mL"},
      {"measurement": "AUC(0-t)", "setting": "[3]; both sexes, sc, 0.3 mg/kg", "result": 33200, "unit": "ng·h/mL"},
      {"measurement": "AUC(0-inf)", "setting": "[3]; both sexes, sc, 1.5 mg/kg", "result": 154000, "unit": "ng·h/mL"},
      {"measurement": "AUC(0-t)", "setting": "[3]; both sexes, sc, 1.5 mg/kg", "result": 153000, "unit": "ng·h/mL"},
      {"measurement": "AUC(0-inf)", "setting": "[3]; both sexes, sc, 7.5 mg/kg", "result": 643000, "unit": "ng·h/mL"},
      {"measurement": "AUC(0-t)", "setting": "[3]; both sexes, sc, 7.5 mg/kg", "result": 637000, "unit": "ng·h/mL"},
      {"measurement": "C0", "setting": "[3]; [4]", "result": "4650 ± 411", "unit": "ng/mL"},
      {"measurement": "Vd", "setting": "[3]; [4]", "result": "0.0648 ± 0.0058", "unit": "L/kg"},
      {"measurement": "clearance", "setting": "[3]; [4]", "result": "4.08 ± 0.618", "unit": "mL/h/kg"},
      {"measurement": "half-life", "setting": "[3]; [4]", "result": "13.6 ± 2.3", "unit": "h"},
      {"measurement": "Cmax", "setting": "[3]; [5]", "result": "814 ± 111", "unit": "ng/mL"},
      {"measurement": "Tmax", "setting": "[3]; [5]", "result": 24, "unit": "h"},
      {"measurement": "bioavailability", "setting": "[3]; [5]", "result": 44.5, "unit": "%"},
      {"measurement": "half-life", "setting": "[3]; [5]", "result": "14.5 ± 1.4", "unit": "h"},
      {"measurement": "Cmax", "setting": "[3]; [6]", "result": "3830 ± 705", "unit": "ng/mL"},
      {"measurement": "Tmax", "setting": "[3]; [6]", "result": 24, "unit": "h"},
      {"measurement": "bioavailability", "setting": "[3]; [6]", "result": 41.1, "unit": "%"},
      {"measurement": "half-life", "setting": "[3]; [6]", "result": "13.4 ± 1.5", "unit": "h"},
      {"measurement": "Cmax", "setting": "[3]; [7]", "result": 15100, "unit": "ng/mL"},
      {"measurement": "Tmax", "setting": "[3]; [7]", "result": "20 ± 6.2", "unit": "h"},
      {"measurement": "bioavailability", "setting": "[3]; [7]", "result": 34.3, "unit": "%"},
      {"measurement": "half-life", "setting": "[3]; [7]", "result": "14.7 ± 2.4", "unit": "h"},
      {"measurement": "AUC0-24", "setting": "[3]; iv, 0.2 mg/kg", "result": 38800, "unit": "ng·h/mL"},
      {"measurement": "AUC0-last", "setting": "[3]; iv, 0.2 mg/kg", "result": 49800, "unit": "ng·h/mL"},
      {"measurement": "AUC0–last (as headed in Table 1)", "setting": "[3]; iv, 0.2 mg/kg", "result": "38,800 ± 5150 ng h/mL"},
      {"measurement": "AUC0–∞ (as headed in Table 1)", "setting": "[3]; iv, 0.2 mg/kg", "result": "49,800 ± 7470 ng h/mL"},
      {"measurement": "AUC0-24", "setting": "[3]; sc, 0.3 mg/kg", "result": 14100, "unit": "ng·h/mL"},
      {"measurement": "AUC0–last (as headed in Table 1)", "setting": "[3]; sc, 0.3 mg/kg", "result": "14,100 ± 2440 ng h/mL"},
      {"measurement": "AUC0–∞ (as headed in Table 1)", "setting": "[3]; sc, 0.3 mg/kg", "result": "33,200 ± 6190 ng h/mL"},
      {"measurement": "AUC0-24", "setting": "[3]; sc, 1.5 mg/kg", "result": 63900, "unit": "ng·h/mL"},
      {"measurement": "AUC0–last (as headed in Table 1)", "setting": "[3]; sc, 1.5 mg/kg", "result": "63,900 ± 11,400 ng h/mL"},
      {"measurement": "AUC0–∞ (as headed in Table 1)", "setting": "[3]; sc, 1.5 mg/kg", "result": "153,000 ± 27,700 ng h/mL"},
      {"measurement": "AUC0-24", "setting": "[3]; sc, 7.5 mg/kg", "result": 269000, "unit": "ng·h/mL"},
      {"measurement": "AUC0–last (as headed in Table 1)", "setting": "[3]; sc, 7.5 mg/kg", "result": "269,000 ± 43,000 ng h/mL"},
      {"measurement": "AUC0–∞ (as headed in Table 1)", "setting": "[3]; sc, 7.5 mg/kg", "result": "637,000 ± 88,700 ng h/mL"}
    ]}
  ]
}
